The values that follow come from ChEMBL document CHEMBL1201862, “PubChem BioAssay data set” (2004).

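Five compound concentrations were applied to cells in 96-well plates for 48 hours; endpoints were derived by simple linear interpolation of the resulting dose-response curve. Here, GI50 denotes the concentration required for 50% inhibition of growth.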 Activity calls are given as the source filed them. Cut-off read from the data, not from the text of the source: active = GI50 up to about 1.1 µM and inactive = higher. Some results are limits rather than exact numbers.

Holding throughout (test): growth of human tumour cells (NCI), 48 h
For assay [1], the system named is OVCAR-8.
Assay [2] concerns MDA-N.
Assay [3] has as its system Malme-3M.
Assay [4] deals with A549.
In assay [5] the test system is HT-29.
For assay [6], the system named is M14.
The subject of assay [7] is OVCAR-3.
Assay [8] relates to UACC-62.
Assay [9] concerns SK-MEL-5.
In assay [10] the test system is SNB-19.
Assay [11] deals with NCI-H226.
Assay [12] deals with KM12.
Assay [13] concerns SF-295.
Assay [14] concerns SK-MEL-28.
For assay [15], the system named is SF-268.
The subject of assay [16] is HCT-15.
For assay [17], the system named is SF-539.
Assay [18] relates to BT-549.
The subject of assay [19] is T47D.

Take `CC1(C)OCC(C(O)C2OC(C)(C)OC2C=O)O1` (centres undefined): the GI50 in [1], in assay [2], in assay [3], in [4], in assay [5] and in assay [6] was > 100 µM (inactive) each time. The GI50 in [7], in [8], in assay [9], in assay [10], in assay [11] and in [12] was > 100 µM (inactive) each time. Further, the GI50 is > 100 µM (inactive) in assay [13], > 100 µM (inactive) in assay [14], > 100 µM (inactive) in [15] and over 100 µM in assay [16].

In the case of `COc1cc2c(c(OC)c1OC)C(=O)CC2N` (centres undefined), the GI50 in assay [1], in [3], in [4], in assay [5], in assay [6] and in assay [17] was > 100 µM (inactive) in each case. The GI50 in assay [7], in assay [18], in assay [8], in assay [9], in [10] and in [11] was > 100 µM (inactive) throughout. For the same molecule, the GI50 was > 100 µM (inactive) in assay [12]; > 100 µM (inactive) in [13]; > 100 µM (inactive) in assay [14]; > 100 µM (inactive) in assay [15]; over 100 µM in assay [16].

Regarding `CC(=O)CC1(C)OC(N)=C(C#N)C1(C#N)C#N` (centres undefined), the GI50 is > 100 µM (inactive) in assay [1]; > 100 µM (inactive) in assay [2]; 80 µM (inactive) in [3]; > 100 µM (inactive) in assay [4]; 88.9 µM (inactive) in assay [5]; > 100 µM (inactive) in [6]. Besides, the GI50 in assay [17] was 86.1 µM (inactive); in assay [8], > 100 µM (inactive); in assay [9], 42.1 µM (inactive); in assay [10] it was > 100 µM (inactive); in assay [11], > 100 µM (inactive); in assay [19] it was > 100 µM (inactive). Also, the GI50 was > 100 µM (inactive) in assay [12]; > 100 µM (inactive) in assay [13]; > 100 µM (inactive) in assay [14]; > 100 µM (inactive) in assay [15]; 43.9 µM in [16].

For the molecule `Cc1ccc2ccccc2c1NC1=NCCO1`, the GI50 is > 100 µM (inactive) in assay [1]; > 100 µM (inactive) in [3]; > 100 µM (inactive) in assay [4]; 83 µM (inactive) in [5]; > 100 µM (inactive) in assay [6]; 35.6 µM (inactive) in assay [17]. Moreover, the GI50 in assay [8] was > 100 µM (inactive); in assay [9], 81.5 µM (inactive); in [10], 27.2 µM (inactive); in assay [11], 20.2 µM (inactive); in [19], 41.7 µM (inactive); in assay [12] it was 75.3 µM (inactive). In addition, the GI50 in [13] is > 100 µM (inactive); in assay [14], > 100 µM (inactive); in assay [15], > 100 µM (inactive); in [16] it was over 100 µM.

For the molecule `N#Cc1nc(C2SCCCS2)oc1N`, the GI50 in assay [1], in assay [2], in [4], in [5], in assay [6] and in assay [8] was > 100 µM (inactive) throughout. The GI50 in assay [9] is > 100 µM (inactive); in [10] it was > 100 µM (inactive); in [12], > 100 µM (inactive); in [14], > 100 µM (inactive); in assay [15], > 100 µM (inactive); in [16] it was over 100 µM.

Turning to `Fc1ccc2c3c([nH]c2c1)CCN(Cc1ccccc1)C3`, the GI50 in assay [1] is 19.7 µM (inactive); in assay [3], 18.4 µM (inactive); in assay [4], 22.6 µM (inactive); in [5], 20.4 µM (inactive); in [6], 17.3 µM (inactive); in [17], 21.7 µM (inactive). Also, the GI50 was 18.2 µM (inactive) in assay [8]; 22.3 µM (inactive) in assay [9]; 16.6 µM (inactive) in [10]; 19 µM (inactive) in [11]; 14.7 µM (inactive) in [19]; 15.3 µM (inactive) in assay [12]. Moreover, the GI50 in assay [13] was 14.7 µM (inactive); in assay [14], 16.7 µM (inactive); in assay [15], 21 µM (inactive); in [16], 21.1 µM.

For the molecule `COC1O[C@@H]2CCN3C(=O)[C@@H](OC(=O)c4ccc([N+](=O)[O-])cc4)[C@H]1C23` (some centres undefined), the GI50 in assay [1], in assay [4], in assay [5], in [6], in assay [17] and in [7] was > 100 µM (inactive) in each case. Further, the GI50 in assay [8], in assay [9], in assay [11], in [19], in assay [12] and in assay [13] was > 100 µM (inactive) throughout. In addition, the GI50 in assay [15] is > 100 µM (inactive).

As for `Cc1ccc(O)c(/N=N\c2c(O)cc(S(=O)(=O)O)c3ccccc23)c1`, the GI50 is 26.2 µM (inactive) in assay [1]; 25.2 µM (inactive) in assay [3]; 54.6 µM (inactive) in [4]; 61.5 µM (inactive) in assay [5]; 24.6 µM (inactive) in assay [6]; 62.5 µM (inactive) in assay [17]. The GI50 in assay [7] is 22.5 µM (inactive); in [18] it was 81.7 µM (inactive); in [8], 25.7 µM (inactive); in [9], 20.7 µM (inactive); in [11], 14.1 µM (inactive); in [12], 21.8 µM (inactive). Besides, the GI50 in assay [13] was 34.6 µM (inactive); in assay [14], 45.3 µM (inactive); in assay [15], > 100 µM (inactive); in assay [16], 43.6 µM.

As to `Cc1cc(C)nc(SCC(=O)OC2CC(C)CCC2C(C)C)n1` (centres undefined), the GI50 in [1] was 38.3 µM (inactive); in assay [3] it was 21.6 µM (inactive); in [4], 22.6 µM (inactive); in assay [5], 16.4 µM (inactive); in assay [6], 16.7 µM (inactive); in assay [7], 14.3 µM (inactive). The GI50 was 45.9 µM (inactive) in [18]; 14.6 µM (inactive) in [8]; 15.2 µM (inactive) in assay [9]; 18.7 µM (inactive) in assay [10]; 14.8 µM (inactive) in [19]; 20.1 µM (inactive) in [12]. Also, the GI50 was 14.6 µM (inactive) in assay [13], 26 µM (inactive) in [14], 37 µM (inactive) in [15] and 15.6 µM in assay [16].

For the molecule `Oc1c(Cl)c(Cl)c(O)c(CCNc2nccs2)c1Cl`, the GI50 in assay [1] was 16.6 µM (inactive); in assay [3], 27.4 µM (inactive); in [4], 21.6 µM (inactive); in [5], 17.9 µM (inactive); in [6], 15.7 µM (inactive); in assay [17] it was 1.68 µM (inactive). The GI50 in assay [7] is 9.35 µM (inactive); in assay [8], 17.1 µM (inactive); in assay [9], 2.2 µM (inactive); in [10], 17 µM (inactive); in assay [19], 5.48 µM (inactive); in assay [12], 6.85 µM (inactive). Besides, the GI50 in assay [13] was 19.1 µM (inactive); in assay [14] it was 20.5 µM (inactive); in assay [15], 9.06 µM (inactive); in [16], 13.7 µM.

On to `COc1c(NC(C)=O)cc(C)cc1NC(C)=O`, for which the GI50 in [1], in assay [4], in [6], in [17], in assay [7] and in [8] was > 100 µM (inactive) throughout. The GI50 was > 100 µM (inactive) in [9]; > 100 µM (inactive) in assay [12]; > 100 µM (inactive) in assay [13]; > 100 µM (inactive) in [14]; > 100 µM (inactive) in assay [15]; over 100 µM in assay [16].

For `O=C(NCCN1CCOCC1)c1ccc2cc(C(=O)N3CC(CCl)c4ccc([N+](=O)[O-])cc43)[nH]c2c1` (centres undefined), the GI50 in assay [1] was 12.1 µM (inactive); in assay [4], 5.19 µM (inactive); in assay [5], 5.14 µM (inactive); in assay [6] it was 7.38 µM (inactive); in assay [17] it was 60.4 µM (inactive); in assay [7] it was 16.9 µM (inactive). Further, the GI50 in assay [18] was 16.9 µM (inactive); in assay [8], 11.9 µM (inactive); in assay [9], 2.54 µM (inactive); in assay [10], 12 µM (inactive); in assay [11], 27.3 µM (inactive); in assay [19], 26.2 µM (inactive). The GI50 in assay [12] is 23.1 µM (inactive); in [13], 3.18 µM (inactive); in [14] it was 6.62 µM (inactive); in assay [15] it was 9.84 µM (inactive); in assay [16] it was 19.1 µM.

As to `CNC(=O)CNC(=O)CCC(=O)OC`, the GI50 in assay [1], in [2], in assay [4], in assay [5], in assay [6] and in [17] was > 100 µM (inactive) each time. The GI50 in assay [7], in [8], in assay [9], in assay [10], in assay [19] and in assay [12] was > 100 µM (inactive) each time. Besides, the GI50 in [13], in [14] and in assay [15] was > 100 µM (inactive) in each case.
